How the values were obtained:
PI3K = PI3K (Homo sapiens, UniProt P42336); experiment: Fluorescence polarization assay for PI3K; format: biochemical; conditions: PI3Kα; read-out: PI3Kα IC50;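 note: PI3K kinase reaction on PIP2 with ATP, 30-60 min, product sensed by GST-GRP with red probe in fluorescence polarization (mP), controls without enzyme and at zero time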
prostate line LNCap = experiment: In vitro cell culture growth assay (MTS), LNCap; format: cell-based, human; conditions: Homo sapiens, LNCaP, 72 h, LNCap cells, three days after drug treatment
breast line MDA468 = experiment: In vitro cell culture growth assay (MTS), MDA468; format: cell-based, human; conditions: Homo sapiens, 72 h, MDA468 cells, three days after drug treatment
How it was run: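 Cells were plated and, one day later, exposed to inhibitors for three days; viable cell density was then measured by metabolic conversion of MTS dye, read as absorbance at 490 nm. Growth is expressed as percent of vehicle-treated control cells on the same plate.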

Chain of PI3K (P42336 whole entry): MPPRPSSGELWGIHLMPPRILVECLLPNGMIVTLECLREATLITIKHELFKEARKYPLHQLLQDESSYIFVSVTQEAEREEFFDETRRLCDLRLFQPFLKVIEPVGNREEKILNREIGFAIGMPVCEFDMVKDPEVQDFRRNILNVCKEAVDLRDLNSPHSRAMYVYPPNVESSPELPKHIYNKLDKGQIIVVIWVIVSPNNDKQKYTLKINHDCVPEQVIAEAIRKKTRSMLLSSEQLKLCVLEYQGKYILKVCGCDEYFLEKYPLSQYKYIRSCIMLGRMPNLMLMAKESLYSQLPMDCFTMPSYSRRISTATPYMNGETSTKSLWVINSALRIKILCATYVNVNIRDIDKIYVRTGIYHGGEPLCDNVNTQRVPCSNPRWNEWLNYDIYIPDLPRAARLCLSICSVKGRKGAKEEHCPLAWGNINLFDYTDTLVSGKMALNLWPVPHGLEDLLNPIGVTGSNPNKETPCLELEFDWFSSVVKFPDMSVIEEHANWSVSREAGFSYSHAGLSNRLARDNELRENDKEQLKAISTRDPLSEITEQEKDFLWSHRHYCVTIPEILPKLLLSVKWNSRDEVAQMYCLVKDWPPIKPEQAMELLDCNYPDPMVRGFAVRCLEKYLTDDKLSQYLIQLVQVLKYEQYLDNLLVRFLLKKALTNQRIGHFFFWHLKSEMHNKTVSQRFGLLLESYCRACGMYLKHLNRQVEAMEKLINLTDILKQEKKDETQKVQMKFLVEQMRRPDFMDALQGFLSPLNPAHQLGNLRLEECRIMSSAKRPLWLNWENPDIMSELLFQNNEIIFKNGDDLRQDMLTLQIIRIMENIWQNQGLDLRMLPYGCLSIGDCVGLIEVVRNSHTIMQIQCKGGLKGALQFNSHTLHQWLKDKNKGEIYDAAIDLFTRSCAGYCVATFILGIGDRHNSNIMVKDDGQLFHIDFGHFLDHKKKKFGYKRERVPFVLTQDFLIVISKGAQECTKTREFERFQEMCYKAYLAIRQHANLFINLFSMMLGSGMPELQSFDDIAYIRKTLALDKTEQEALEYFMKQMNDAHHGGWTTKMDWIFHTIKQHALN
Chain of PI3K (P27986 whole entry partner): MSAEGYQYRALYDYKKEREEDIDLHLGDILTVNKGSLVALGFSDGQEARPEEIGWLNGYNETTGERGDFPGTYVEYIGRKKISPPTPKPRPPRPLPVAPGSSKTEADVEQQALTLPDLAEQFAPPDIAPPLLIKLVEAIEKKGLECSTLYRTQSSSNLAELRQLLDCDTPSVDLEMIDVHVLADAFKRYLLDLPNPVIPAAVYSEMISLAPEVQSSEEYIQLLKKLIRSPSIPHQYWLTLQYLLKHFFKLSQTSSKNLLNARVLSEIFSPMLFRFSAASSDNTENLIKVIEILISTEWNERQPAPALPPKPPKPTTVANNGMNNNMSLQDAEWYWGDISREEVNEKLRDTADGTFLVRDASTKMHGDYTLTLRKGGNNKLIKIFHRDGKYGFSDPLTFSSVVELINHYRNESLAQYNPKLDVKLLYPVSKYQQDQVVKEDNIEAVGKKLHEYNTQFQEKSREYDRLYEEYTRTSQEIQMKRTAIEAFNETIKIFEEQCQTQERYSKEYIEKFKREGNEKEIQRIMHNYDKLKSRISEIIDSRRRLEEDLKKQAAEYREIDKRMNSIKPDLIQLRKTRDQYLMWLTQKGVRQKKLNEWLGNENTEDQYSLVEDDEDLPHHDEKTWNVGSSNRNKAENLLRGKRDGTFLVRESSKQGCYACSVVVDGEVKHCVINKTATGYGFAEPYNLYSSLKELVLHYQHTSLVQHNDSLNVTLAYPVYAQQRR

Row | SMILES | IC50 (PI3K) [nM] | IC50 (prostate line LNCap) [nM] | IC50 (breast line MDA468) [nM]
1 | COC(=O)N1CCC(n2ncc3c(N4CCOCC4)nc(-c4ccc(NC(=O)Nc5ccc(CCNCCO)cc5)cc4)nc32)CC1 [Compound 921, methyl 4-[6-(4-{[(4-{2-[(2-hydroxyethyl)amino]ethyl}phenyl)carbamoyl]amino}phenyl)-4-morpholin-4-yl-1H-pyrazolo[3,4-d]pyrimidin-1-yl]piperidine-1-carboxylate] | 12 | 1 | 120
2 | CCOC(=O)N1CCC(n2ncc3c(N4CCOC[C@@H]4C)nc(-c4ccc(NC(=O)Nc5ccccc5)cc4)nc32)CC1 [Compound 896, ethyl 4-(4-[(3S)-3-methylmorpholin-4-yl]-6-{4-[(phenylcarbamoyl)amino]phenyl}-1H-pyrazolo[3,4-d]pyrimidin-1-yl)piperidine-1-carboxylate] | 19 | 150 | 800
3 | CCOC(=O)Nc1ccc(-c2nc(N3CCOCC3)c3cnn(C4CCN(C(=O)c5ccccc5)CC4)c3n2)cc1 [Example 383, Ethyl {4-[1-(1-benzoylpiperidin-4-yl)-4-morpholin-4-yl-1H-pyrazolo[3,4-d]pyrimidin-6-yl]phenyl}carbamate] | 1580 | 900 | 4300
4 | C=CC(=O)N1CCC(n2ncc3c(N4CCOCC4)nc(-c4ccc5[nH]ccc5c4)nc32)CC1 [Compound 194] | 1060 | 950 | 3000
5 | CNCCNC(=O)Nc1ccc(-c2nc(N3CCOCC3)c3cnn(C4CCN(Cc5ccccc5)CC4)c3n2)cc1 [Compound 545, 1-{4-[1-(1-benzylpiperidin-4-yl)-4-morpholin-4-yl-1H-pyrazolo[3,4-d]pyrimidin-6-yl]phenyl}-3-[2-(methylamino)ethyl]urea] | 13 | 200 | 150
6 | O=C(Nc1ccccc1)Nc1ccc(-c2nc(N3CCOCC3)c3cnn(C4CCN(Cc5cccnc5)CC4)c3n2)cc1F [Example 351, 1-(2-fluoro-4-{4-morpholin-4-yl-1-[1-(pyridin-3-ylmethyl)piperidin-4-yl]-1H-pyrazolo[3,4-d]pyrimidin-6-yl}phenyl)-3-phenylurea] | 41 | 70 | 400
7 | Oc1cccc(-c2nc(N3CCOCC3)c3cnn(C4CCN(Cc5ccc[nH]5)CC4)c3n2)c1 [Example 14] | 20 | 110 | 600
8 | CCOC(=O)N1CCC(n2ncc3c(N4CCOC[C@H]4C)nc(-c4ccc(NC(=O)Nc5ccncc5)cc4)nc32)CC1 [Compound 893, ethyl 4-(4-[(3R)-3-methylmorpholin-4-yl]-6-{4-[(pyridin-4-ylcarbamoyl)amino]phenyl}-1H-pyrazolo[3,4-d]pyrimidin-1-yl)piperidine-1-carboxylate] | 517 | 5 | 180
9 | O=C(Nc1ccc(-c2nc(N3CCOCC3)c3cn[nH]c3n2)cc1)c1cccnc1 [Compound 524, N-[4-(4-morpholin-4-yl-1H-pyrazolo[3,4-d]pyrimidin-6-yl)phenyl]nicotinamide] | 1170 | 7200 | 60000
10 | COC(=O)Nc1ccc(-c2nc(N3CCOCC3)c3cnn(C4CCN(C(C)=O)CC4)c3n2)cc1 [Compound 809, methyl {4-[1-(1-acetylpiperidin-4-yl)-4-morpholin-4-yl-1H-pyrazolo[3,4-d]pyrimidin-6-yl]phenyl}carbamate] | 2100 | 2300 | 4500
11 | NC(=O)c1cccc(-c2nc(N3CCOCC3)c3cnn(C4CCN(Cc5ccccc5)CC4)c3n2)c1 [Compound 82] | 877 | 13000 | 29000
12 | COc1cc(-c2nc(N3CCOCC3)c3cnn(C4CCN(Cc5ccccc5)CC4)c3n2)ccc1N [Compound 181] | 2480 | 1500 | 5500
13 | CNC(=O)Nc1ccc(-c2nc(N3CCOCC3)c3cnn(C4CCC5(CC4)OCCO5)c3n2)cc1 [Compound 566, 1-{4-[1-(1,4-dioxaspiro[4.5]dec-8-yl)-4-morpholin-4-yl-1H-pyrazolo[3,4-d]pyrimidin-6-yl]phenyl}-3-methylurea] | 74 | < 27 | 85
14 | CS(=O)(=O)Nc1cccc(-c2nc(N3CCOCC3)c3cnn(-c4ccccc4)c3n2)c1 [Compound 116] | 111 | 20000 | 60000
15 | c1ccc(CN2CCC(n3ncc4c(N5CCOCC5)nc(-c5cccc6cc[nH]c56)nc43)CC2)cc1 [Example 72] | 520 | 9500 | 6000
16 | CCn1nc(C#CCO)c2c(N3CCOCC3)nc(-c3ccc(NC(=O)Nc4cccnc4)cc3)nc21 [Compound 956, 1-{4-[1-ethyl-3-(3-hydroxyprop-1-yn-1-yl)-4-morpholin-4-yl-1H-pyrazolo[3,4-d]pyrimidin-6-yl]phenyl}-3-pyridin-3-ylurea] | 1.75 | 47 | 90
17 | O=C(Nc1ccc(-c2nc(N3CCOCC3)c3cnn(C4CCN(Cc5ccccc5)CC4)c3n2)cc1)NN1CCCC1 [Compound 537, 1-{4-[1-(1-benzylpiperidin-4-yl)-4-morpholin-4-yl-1H-pyrazolo[3,4-d]pyrimidin-6-yl]phenyl}-3-pyrrolidin-1-ylurea] | 4230 | 3000 | 10000
18 | COC(=O)N1CCC(n2ncc3c(N4CCOCC4)nc(-c4ccc(NC(=O)Nc5ccc(F)cc5F)cc4)nc32)CC1 [Compound 861, methyl 4-[6-(4-{[(2,4-difluorophenyl)carbamoyl]amino}phenyl)-4-morpholin-4-yl-1H-pyrazolo[3,4-d]pyrimidin-1-yl]piperidine-1-carboxylate] | 250 | 110 | 580
19 | CN(C)C1CCC(n2ncc3c(N4CCOCC4)nc(-c4ccc5[nH]ccc5c4)nc32)CC1 (stereo not drawn) [Compound 150] | 1950 | 300 | 2100
20 | O=C(Nc1ccncc1)Nc1ccc(-c2nc(N3CCOCC3)c3cnn(C4CCN(Cc5cccnc5)CC4)c3n2)cc1 [Example 340, 1-(4-{4-morpholin-4-yl-1-[1-(pyridin-3-ylmethyl)piperidin-4-yl]-1H-pyrazolo[3,4-d]pyrimidin-6-yl}phenyl)-3-pyridin-4-ylurea] | 13 | 28 | 100
21 | COC(=NC#N)Nc1ccc(-c2nc(N3CCOCC3)c3cnn(C4CCN(Cc5cccnc5)CC4)c3n2)cc1 [Example 410, methyl N′-cyano-N-(4-{4-morpholin-4-yl-1-[1-(pyridin-3-ylmethyl)piperidin-4-yl]-1H-pyrazolo[3,4-d]pyrimidin-6-yl}phenyl)imidocarbamate] | 593 | 2200 | 1300
22 | NNC(=O)Nc1ccc(-c2nc(N3CCOCC3)c3cnn(-c4ccccc4)c3n2)cc1 [Example 292, N-[4-(4-morpholin-4-yl-1-phenyl-1H-pyrazolo[3,4-d]pyrimidin-6-yl)phenyl]hydrazinecarboxamide] | 171 | 5200 | 8000
23 | Nc1ccc(-c2nc(N3CCOCC3)c3cnn(C4CCN(C(=O)c5cccnc5)CC4)c3n2)c(F)c1 [Compound 460, 3-fluoro-4-{4-morpholin-4-yl-1-[1-(pyridin-3-ylcarbonyl)piperidin-4-yl]-1H-pyrazolo[3,4-d]pyrimidin-6-yl}aniline] | 4030 | 4900 | 14000
24 | CNC(=O)Nc1ccc(-c2nc(N3CCOCC3)c3cnn(C4CCN(Cc5ccc(OC)nc5)CC4)c3n2)cc1 [Compound 574, 1-[4-(1-{1-[(6-methoxypyridin-3-yl)methyl]piperidin-4-yl}-4-morpholin-4-yl-1H-pyrazolo[3,4-d]pyrimidin-6-yl)phenyl]-3-methylurea] | 33 | < 27 | 700
25 | OCCN1CCC(n2ncc3c(N4CCOCC4)nc(-c4ccc5[nH]ccc5c4)nc32)CC1 [Compound 496, 2-{4-[6-(1H-indol-5-yl)-4-morpholin-4-yl-1H-pyrazolo[3,4-d]pyrimidin-1-yl]piperidin-1-yl}ethanol] | 3990 | 1800 | 3000
26 | CNC(=O)Nc1ccc(-c2nc(N3CCOCC3)c3cnn(C4CCN(C(=O)c5cccc(C(C)=O)c5)CC4)c3n2)cc1 [Example 423, 1-(4-{1-[1-(3-acetylbenzoyl)piperidin-4-yl]-4-morpholin-4-yl-1H-pyrazolo[3,4-d]pyrimidin-6-yl}phenyl)-3-methylurea] | 83 | 110 | 200
27 | CCCOC(=O)N1CCC(n2ncc3c(N4CCOCC4)nc(-c4ccc(NC(=O)Nc5ccccc5)cc4)nc32)CC1 [Compound 849, propyl 4-(4-morpholin-4-yl-6-{4-[(phenylcarbamoyl)amino]phenyl}-1H-pyrazolo[3,4-d]pyrimidin-1-yl)piperidine-1-carboxylate] | 24 | 95 | 300
28 | COCCN1CCC(n2ncc3c(N4CCOCC4)nc(-c4ccc5[nH]ccc5c4)nc32)CC1 [Compound 491, 6-(1H-indol-5-yl)-1-[1-(2-methoxyethyl)piperidin-4-yl]-4-morpholin-4-yl-1H-pyrazolo[3,4-d]pyrimidine] | 5000 | 2400 | 4200
29 | C/C=C/C(=O)N1CCC(n2ncc3c(N4CCOCC4)nc(-c4ccc(NC(=O)NC)cc4)nc32)CC1 [Compound 756, 1-[4-(1-{1-[(2E)-but-2-enoyl]piperidin-4-yl}-4-morpholin-4-yl-1H-pyrazolo[3,4-d]pyrimidin-6-yl)phenyl]-3-methylurea] | 174 | 500 | 500

From US20080234262A1 (Wyeth, priority 2007, published 2008)
